Calls of active or inactive are those of the source. The rule behind the calls is not given here.
Experiments:
[1] = biological target: Kappa-type opioid receptor (Homo sapiens) (UniProt P41145); assay: Inhibition of human recombinant KOP receptor at 10 uM by radioligand binding assay
[2] = biological target: Neuropeptide Y receptor type 2 (Homo sapiens) (UniProt P49146); assay: Inhibition of human recombinant Y2 receptor at 10 uM by radioligand binding assay
[3] = biological target: Histamine H2 receptor (Homo sapiens) (UniProt P25021); assay: Inhibition of human recombinant H2 receptor at 10 uM by radioligand binding assay
[4] = biological target: T1, Substance-K receptor (Homo sapiens) (UniProt P21452); assay: Inhibition of human recombinant NK2 receptor at 10 uM by radioligand binding assay
T1 sequence (whole entry): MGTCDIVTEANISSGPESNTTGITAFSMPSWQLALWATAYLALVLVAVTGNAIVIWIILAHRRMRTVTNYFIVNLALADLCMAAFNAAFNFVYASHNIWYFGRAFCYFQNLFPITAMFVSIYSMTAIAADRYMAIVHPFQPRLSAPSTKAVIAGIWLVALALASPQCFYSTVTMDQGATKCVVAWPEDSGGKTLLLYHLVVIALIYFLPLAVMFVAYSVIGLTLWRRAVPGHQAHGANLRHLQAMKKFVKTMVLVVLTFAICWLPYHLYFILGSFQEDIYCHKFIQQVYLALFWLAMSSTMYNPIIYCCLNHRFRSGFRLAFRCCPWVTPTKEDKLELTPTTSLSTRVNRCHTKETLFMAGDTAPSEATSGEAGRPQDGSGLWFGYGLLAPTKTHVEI

[5] = biological target: T2, Galanin receptor type 2 (Homo sapiens) (UniProt O43603); assay: Inhibition of human recombinant GAL2 receptor at 10 uM by radioligand binding assay
T2 sequence (whole entry): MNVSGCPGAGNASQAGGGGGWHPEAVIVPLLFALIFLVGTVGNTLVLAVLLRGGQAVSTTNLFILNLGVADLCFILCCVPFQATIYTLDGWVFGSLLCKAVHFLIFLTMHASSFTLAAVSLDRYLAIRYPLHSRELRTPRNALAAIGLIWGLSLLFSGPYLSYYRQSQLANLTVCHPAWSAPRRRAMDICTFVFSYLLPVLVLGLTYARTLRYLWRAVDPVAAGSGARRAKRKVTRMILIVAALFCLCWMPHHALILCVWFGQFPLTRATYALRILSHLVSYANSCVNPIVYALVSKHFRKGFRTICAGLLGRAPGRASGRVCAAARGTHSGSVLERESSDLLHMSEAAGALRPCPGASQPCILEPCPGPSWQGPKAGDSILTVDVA

Homo sapiens = species: Homo sapiens; assay: Inhibition of human recombinant sodium channel at 10 uM by radioligand binding assay
[6] = biological target: Melanocortin receptor 4 (Homo sapiens) (UniProt P32245); assay: Inhibition of human recombinant MC4 receptor at 10 uM by radioligand binding assay
[7] = biological target: Sodium-dependent dopamine transporter (Homo sapiens) (UniProt Q01959); assay: Inhibition of human recombinant DAT at 10 uM by radioligand binding assay
[8] = biological target: T3, Neuromedin-K receptor (Homo sapiens) (UniProt P29371); assay: Inhibition of human recombinant NK3 receptor at 10 uM by radioligand binding assay
T3 sequence (whole entry): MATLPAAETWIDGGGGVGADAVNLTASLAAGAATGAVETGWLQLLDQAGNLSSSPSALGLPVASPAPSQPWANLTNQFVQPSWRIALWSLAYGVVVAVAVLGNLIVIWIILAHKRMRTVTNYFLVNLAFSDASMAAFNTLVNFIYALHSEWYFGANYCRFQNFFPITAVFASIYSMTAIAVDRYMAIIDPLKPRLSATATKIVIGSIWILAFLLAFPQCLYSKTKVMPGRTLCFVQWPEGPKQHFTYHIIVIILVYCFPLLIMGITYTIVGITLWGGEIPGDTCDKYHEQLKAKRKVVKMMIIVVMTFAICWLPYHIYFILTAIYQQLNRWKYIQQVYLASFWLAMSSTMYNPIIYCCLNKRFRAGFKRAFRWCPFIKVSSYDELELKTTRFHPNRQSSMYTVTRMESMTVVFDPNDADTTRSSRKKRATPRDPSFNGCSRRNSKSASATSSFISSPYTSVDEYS

[9] = tested on: 5-hydroxytryptamine receptor 2A; assay: Inhibition of human recombinant 5HT2A receptor at 10 uM by radioligand binding assay
[10] = biological target: 5-hydroxytryptamine receptor 1B (Homo sapiens) (UniProt P28222); assay: Inhibition of human recombinant 5HT1B receptor at 10 uM by radioligand binding assay
[11] = biological target: T4, C-C chemokine receptor type 1 (Homo sapiens) (UniProt P32246); assay: Inhibition of human recombinant CCR1 receptor at 10 uM by radioligand binding assay
T4 sequence (whole entry): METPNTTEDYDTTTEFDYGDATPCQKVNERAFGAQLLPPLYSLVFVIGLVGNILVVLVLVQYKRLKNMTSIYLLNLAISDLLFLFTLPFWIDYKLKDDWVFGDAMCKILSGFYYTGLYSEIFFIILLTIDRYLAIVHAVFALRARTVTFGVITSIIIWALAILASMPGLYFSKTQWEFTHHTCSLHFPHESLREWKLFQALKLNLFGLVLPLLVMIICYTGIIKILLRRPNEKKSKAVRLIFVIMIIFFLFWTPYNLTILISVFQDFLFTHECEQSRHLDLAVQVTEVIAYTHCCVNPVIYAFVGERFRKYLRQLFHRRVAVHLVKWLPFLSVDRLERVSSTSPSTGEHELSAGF

[12] = biological target: Adenosine receptor A2a (Homo sapiens) (UniProt P29274); assay: Inhibition of human recombinant A2a receptor at 10 uM by radioligand binding assay
[13] = biological target: Beta-1 adrenergic receptor (Homo sapiens) (UniProt P08588); assay: Inhibition of human recombinant beta1 receptor at 10 uM by radioligand binding assay
[14] = biological target: Adrenergic receptor alpha-2 (Homo sapiens) (UniProt P08913+P18825+P18089); assay: Inhibition of human recombinant alpha2 receptor at 10 uM by radioligand binding assay
[15] = biological target: Voltage-gated L-type calcium channel (Homo sapiens, UniProt Q13936+Q13698+Q01668+O60840); assay: Inhibition of human recombinant L-type Ca2+ channel at 10 uM by radioligand binding assay
[16] = Inhibition of GSNOR expressed in Escherichia coli using GSNO by cuvette method
[17] = biological target: Neurotensin receptor type 1 (Homo sapiens) (UniProt P30989); assay: Inhibition of human recombinant NTS1 receptor at 10 uM by radioligand binding assay
[18] = biological target: Histamine H1 receptor (Homo sapiens) (UniProt P35367); assay: Inhibition of human recombinant H1 receptor at 10 uM by radioligand binding assay
[19] = biological target: D(1A) dopamine receptor (Homo sapiens) (UniProt P21728); assay: Inhibition of human recombinant D1 receptor at 10 uM by radioligand binding assay
[20] = biological target: Nociceptin receptor (Homo sapiens) (UniProt P41146); assay: Inhibition of human recombinant NOP receptor at 10 uM by radioligand binding assay
Nociceptin receptor (Homo sapiens), sequence (P41146 whole entry): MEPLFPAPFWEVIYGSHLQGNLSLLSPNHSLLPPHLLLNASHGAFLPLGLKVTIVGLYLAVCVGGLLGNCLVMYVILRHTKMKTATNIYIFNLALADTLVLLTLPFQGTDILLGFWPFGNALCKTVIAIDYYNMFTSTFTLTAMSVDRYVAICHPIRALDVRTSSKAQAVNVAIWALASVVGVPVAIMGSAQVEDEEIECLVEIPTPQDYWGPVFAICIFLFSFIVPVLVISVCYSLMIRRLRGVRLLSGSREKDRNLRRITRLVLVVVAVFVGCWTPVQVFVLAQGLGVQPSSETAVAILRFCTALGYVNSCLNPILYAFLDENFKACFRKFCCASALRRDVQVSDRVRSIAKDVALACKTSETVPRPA

Histamine H2 receptor (Homo sapiens), sequence (P25021 whole entry): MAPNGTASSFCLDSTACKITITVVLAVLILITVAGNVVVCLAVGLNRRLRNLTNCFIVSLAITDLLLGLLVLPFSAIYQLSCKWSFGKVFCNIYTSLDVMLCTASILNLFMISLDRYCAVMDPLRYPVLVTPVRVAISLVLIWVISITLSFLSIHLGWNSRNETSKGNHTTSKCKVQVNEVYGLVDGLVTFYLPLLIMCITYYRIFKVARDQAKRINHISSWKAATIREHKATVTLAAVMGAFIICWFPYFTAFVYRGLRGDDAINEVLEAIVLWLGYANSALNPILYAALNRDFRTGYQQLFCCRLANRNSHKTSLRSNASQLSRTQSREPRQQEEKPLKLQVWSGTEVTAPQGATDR
D(1A) dopamine receptor (Homo sapiens), sequence (P21728 whole entry): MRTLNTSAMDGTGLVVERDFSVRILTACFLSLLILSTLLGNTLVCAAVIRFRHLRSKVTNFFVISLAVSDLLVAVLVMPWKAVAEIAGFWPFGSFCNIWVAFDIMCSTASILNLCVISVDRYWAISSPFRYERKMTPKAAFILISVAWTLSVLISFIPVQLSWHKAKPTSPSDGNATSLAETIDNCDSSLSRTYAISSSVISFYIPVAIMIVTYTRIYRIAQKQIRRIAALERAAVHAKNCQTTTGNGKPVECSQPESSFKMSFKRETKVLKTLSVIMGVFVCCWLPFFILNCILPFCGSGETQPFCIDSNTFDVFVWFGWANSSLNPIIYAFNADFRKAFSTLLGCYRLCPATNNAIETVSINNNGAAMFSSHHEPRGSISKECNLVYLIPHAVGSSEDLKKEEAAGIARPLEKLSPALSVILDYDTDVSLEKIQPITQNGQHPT
5-hydroxytryptamine receptor 1B (Homo sapiens), sequence (P28222 whole entry): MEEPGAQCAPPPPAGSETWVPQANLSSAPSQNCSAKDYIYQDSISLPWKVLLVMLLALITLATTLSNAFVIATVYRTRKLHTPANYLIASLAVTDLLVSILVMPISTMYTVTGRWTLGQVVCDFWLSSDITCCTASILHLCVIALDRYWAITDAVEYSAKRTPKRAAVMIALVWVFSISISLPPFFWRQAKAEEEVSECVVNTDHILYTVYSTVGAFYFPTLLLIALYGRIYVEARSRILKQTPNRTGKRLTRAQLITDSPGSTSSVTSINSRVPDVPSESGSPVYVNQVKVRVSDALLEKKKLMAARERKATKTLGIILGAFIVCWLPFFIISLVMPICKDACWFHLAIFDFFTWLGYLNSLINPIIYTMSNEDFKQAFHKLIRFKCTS
Melanocortin receptor 4 (Homo sapiens), sequence (P32245 whole entry): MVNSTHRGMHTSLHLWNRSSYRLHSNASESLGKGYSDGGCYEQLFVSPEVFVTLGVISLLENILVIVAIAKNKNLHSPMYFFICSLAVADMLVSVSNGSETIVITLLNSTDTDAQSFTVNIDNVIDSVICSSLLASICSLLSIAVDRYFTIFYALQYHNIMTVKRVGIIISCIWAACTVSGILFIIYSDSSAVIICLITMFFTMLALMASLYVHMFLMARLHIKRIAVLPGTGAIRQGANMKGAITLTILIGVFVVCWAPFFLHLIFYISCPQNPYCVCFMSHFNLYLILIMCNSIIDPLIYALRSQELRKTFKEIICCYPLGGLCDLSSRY
Adenosine receptor A2a (Homo sapiens), sequence (P29274 whole entry): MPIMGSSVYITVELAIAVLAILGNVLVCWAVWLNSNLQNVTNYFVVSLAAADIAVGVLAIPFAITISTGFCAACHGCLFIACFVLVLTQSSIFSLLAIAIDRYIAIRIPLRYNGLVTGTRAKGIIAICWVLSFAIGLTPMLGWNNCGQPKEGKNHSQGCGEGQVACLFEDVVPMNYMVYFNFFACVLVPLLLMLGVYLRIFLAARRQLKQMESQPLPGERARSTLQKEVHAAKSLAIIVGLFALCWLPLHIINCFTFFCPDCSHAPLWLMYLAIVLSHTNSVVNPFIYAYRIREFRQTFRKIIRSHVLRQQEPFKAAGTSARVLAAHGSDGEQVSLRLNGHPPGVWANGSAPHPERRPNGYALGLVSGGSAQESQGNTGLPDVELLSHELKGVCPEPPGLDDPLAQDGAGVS
Kappa-type opioid receptor (Homo sapiens), sequence (P41145 whole entry): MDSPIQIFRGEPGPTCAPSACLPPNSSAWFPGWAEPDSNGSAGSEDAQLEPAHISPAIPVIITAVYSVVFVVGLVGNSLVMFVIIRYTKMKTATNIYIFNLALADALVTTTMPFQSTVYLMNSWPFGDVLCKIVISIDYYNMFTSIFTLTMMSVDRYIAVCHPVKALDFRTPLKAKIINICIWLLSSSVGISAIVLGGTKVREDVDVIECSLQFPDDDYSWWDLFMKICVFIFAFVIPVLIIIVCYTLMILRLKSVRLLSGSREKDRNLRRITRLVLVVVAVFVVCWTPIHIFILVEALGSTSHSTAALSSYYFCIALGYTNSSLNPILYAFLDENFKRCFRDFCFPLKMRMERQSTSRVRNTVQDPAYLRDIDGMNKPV
Neurotensin receptor type 1 (Homo sapiens), sequence (P30989 whole entry): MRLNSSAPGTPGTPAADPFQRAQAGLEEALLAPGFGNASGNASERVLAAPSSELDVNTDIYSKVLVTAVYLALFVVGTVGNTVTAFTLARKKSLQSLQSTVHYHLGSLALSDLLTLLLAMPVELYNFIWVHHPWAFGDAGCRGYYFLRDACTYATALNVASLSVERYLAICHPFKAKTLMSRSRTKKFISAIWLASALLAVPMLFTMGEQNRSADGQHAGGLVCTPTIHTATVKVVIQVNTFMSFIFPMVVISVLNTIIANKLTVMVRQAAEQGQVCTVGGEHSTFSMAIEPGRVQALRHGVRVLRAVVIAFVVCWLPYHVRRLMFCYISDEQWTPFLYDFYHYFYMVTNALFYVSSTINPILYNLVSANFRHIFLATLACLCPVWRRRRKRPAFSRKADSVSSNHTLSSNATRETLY
Beta-1 adrenergic receptor (Homo sapiens), sequence (P08588 whole entry, looked up): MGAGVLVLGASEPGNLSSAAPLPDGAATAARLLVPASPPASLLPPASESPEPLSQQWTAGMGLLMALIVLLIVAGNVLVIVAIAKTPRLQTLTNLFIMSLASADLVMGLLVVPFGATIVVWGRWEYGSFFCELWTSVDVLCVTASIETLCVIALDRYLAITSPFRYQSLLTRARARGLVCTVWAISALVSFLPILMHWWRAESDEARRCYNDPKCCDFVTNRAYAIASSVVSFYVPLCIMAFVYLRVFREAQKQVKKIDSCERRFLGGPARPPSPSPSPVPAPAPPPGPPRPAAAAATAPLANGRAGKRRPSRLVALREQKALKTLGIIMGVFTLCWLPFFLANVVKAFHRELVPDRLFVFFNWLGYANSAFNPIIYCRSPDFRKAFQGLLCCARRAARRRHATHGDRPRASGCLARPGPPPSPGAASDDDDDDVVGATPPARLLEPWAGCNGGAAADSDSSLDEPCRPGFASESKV
Histamine H1 receptor (Homo sapiens), sequence (P35367 whole entry): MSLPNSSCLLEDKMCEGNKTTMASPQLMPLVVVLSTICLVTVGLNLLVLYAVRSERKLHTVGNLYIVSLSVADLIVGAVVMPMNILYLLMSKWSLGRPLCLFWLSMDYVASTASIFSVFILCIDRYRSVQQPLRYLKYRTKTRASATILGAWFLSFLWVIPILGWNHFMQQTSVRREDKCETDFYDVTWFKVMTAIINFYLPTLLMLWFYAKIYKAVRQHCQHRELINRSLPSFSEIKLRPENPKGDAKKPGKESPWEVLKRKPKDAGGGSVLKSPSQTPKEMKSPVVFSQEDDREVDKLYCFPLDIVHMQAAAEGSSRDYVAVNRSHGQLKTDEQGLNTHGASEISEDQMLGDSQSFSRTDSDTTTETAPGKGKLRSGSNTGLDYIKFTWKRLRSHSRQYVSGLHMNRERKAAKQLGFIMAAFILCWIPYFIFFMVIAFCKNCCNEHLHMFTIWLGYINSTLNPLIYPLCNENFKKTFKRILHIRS
Sodium-dependent dopamine transporter (Homo sapiens), sequence (Q01959 whole entry): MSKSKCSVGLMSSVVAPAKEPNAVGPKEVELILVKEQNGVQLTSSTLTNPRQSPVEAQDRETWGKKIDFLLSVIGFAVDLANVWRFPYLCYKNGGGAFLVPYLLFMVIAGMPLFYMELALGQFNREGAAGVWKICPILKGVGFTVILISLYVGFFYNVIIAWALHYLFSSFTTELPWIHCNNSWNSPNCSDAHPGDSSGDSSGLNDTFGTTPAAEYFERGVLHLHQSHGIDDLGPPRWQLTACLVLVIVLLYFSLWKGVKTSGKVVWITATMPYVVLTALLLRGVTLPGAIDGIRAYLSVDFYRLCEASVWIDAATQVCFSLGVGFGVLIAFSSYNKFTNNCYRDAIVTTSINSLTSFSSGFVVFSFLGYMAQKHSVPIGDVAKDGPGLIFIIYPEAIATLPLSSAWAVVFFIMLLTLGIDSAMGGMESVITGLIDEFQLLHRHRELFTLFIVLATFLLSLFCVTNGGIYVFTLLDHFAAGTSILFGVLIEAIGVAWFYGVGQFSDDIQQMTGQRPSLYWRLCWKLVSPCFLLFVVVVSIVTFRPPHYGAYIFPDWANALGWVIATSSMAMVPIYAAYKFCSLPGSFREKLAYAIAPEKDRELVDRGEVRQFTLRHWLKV

Row | Compound | inhibition [1] | inhibition [2] | inhibition [3] | inhibition [4] | inhibition [5] | inhibition (Homo sapiens) | inhibition [6] | inhibition [7] | inhibition [8] | inhibition [9] | inhibition [10] | inhibition [11] | inhibition [12] | inhibition [13] | inhibition [14] | inhibition (INH) [15] | inhibition [17] | inhibition [18] | inhibition [19] | inhibition [20] | other results
1 | COc1ccc(-c2ccn(-c3ccc(C(=O)O)c(O)c3)c2-c2ccc(C(N)=O)cc2C)cc1 | Active | Active | Active | Active | Active | Active | Active | Active | Active | Active | Active | Active | Active | Active | Active | Active | Active | Active | Active | Active | IC50 [16]: 280 nM
2 | Cc1cc(C(N)=O)ccc1-c1c(CCC(=O)O)ccn1-c1ccc(-n2ccnc2)cc1 | inactive | inactive | inactive | inactive | inactive | inactive | inactive | inactive | inactive | inactive | inactive | inactive | inactive | inactive | inactive | Not Active | inactive | inactive | inactive | inactive | –
3 | COc1ccc(-c2ccn(-c3ccc(O)c([N+](=O)[O-])c3)c2-c2ccc(C(N)=O)cc2C)cc1 | Active | Active | Active | Active | Active | Active | Active | Active | Active | Active | Active | Active | Active | Active | Active | Active | Active | Active | Active | Active | IC50 [16]: 190 nM
4 | Cc1cc(C(N)=O)ccc1-c1c(-c2ccc(-n3ccnc3)cc2)ccn1CCC(=O)O | inactive | inactive | inactive | inactive | inactive | inactive | inactive | inactive | inactive | inactive | inactive | inactive | inactive | inactive | inactive | Not Active | inactive | inactive | inactive | inactive | –
5 | Cc1cc(C(N)=O)ccc1-n1c(CCC(=O)O)ccc1-c1ccc(-n2ccnc2)cc1 [N6022] | inactive | inactive | inactive | inactive | inactive | inactive | inactive | inactive | inactive | – | inactive | inactive | inactive | inactive | inactive | Not Active | inactive | inactive | inactive | inactive | IC50 [16]: 20 nM

From ChEMBL document CHEMBL1781986, “Structure-activity relationships of pyrrole based S-nitrosoglutathione reductase inhibitors: pyrrole regioisomers and propionic acid replacement” (Bioorg Med Chem Lett, 2011)
